Patent US20120121692A1, “COMPOUNDS AND COMPOSITIONS COMPRISING CDK INHIBITORS AND METHODS FOR TREATING CANCER” (SHANDONG UNIVERSITY, priority 2009, published 2012)
Like-named read-outs stand apart in the source and are kept apart here.

Tests used:
HCT116 cells = assay: MTT cytotoxicity screening, human colon cancer cell line HCT116; format: cell-based; details: Homo sapiens
Text: Human colon cancer cell line HCT116 can be used for the preliminary cytotoxicity screening of the disclosed compounds as disclosed by Mosmann, T., “Rapid colorimetric assay for cellular growth and survival: application to proliferation and cytotoxicity assays.” J. Immunol. Methods, (1983) 65(1-2): p. 55-63 referred to herein further as the “MTT test” which is incorporated herein by reference in its entirety.
The disclosure of Mosmann recites the following. “MTT 93-(4,5-dimethylthirazol-2-yl)-2,5-diphenyl tetrazolium bromide; Sigman catalog no. M2128) was dissolved in PBS at 5 mg/ml and filtered to sterilize and remove a small amount of insoluble residue present in some batches of MTT. At the times indicated below, stock MTT solution (10 ml per 100 ml) was added to all wells of an assay, and plates were incubated at 37° C. for 4 h. Acid-siopropanol (100 ml of 0.04 N HCl in isopropanol) was added to all wells and mixed thoroughly to dissolve the dark blue crystals. After a few minutes at room temperature to ensure that all crystals were dissolved, the plates were read o a Dynatech MR580Microelisa reader, using a test wavelength of 570 nm, a reference wavelength of 630 nm, and a calibration setting of 1.99 (or 1.0 if the samples were strongly colored). Plates were normally read within 1 h of adding the isopropanol.
“Our final procedure was to add 0.01 ml MTT (5 mg/ml in phosphate-buffered saline) to 0.1 ml cells in growth medium. After 4 h at 37° C. for MTT cleavage, the formazan product was solublilized by the addition of 0.1 ml 0.04 N HCl in isopropanol. Optical density was measured on a Dynatech MR 580 plate reader, using a reference wavelength of 630 nm and a test wavelength of 570 nm.” 3-(4,5-Dimethylthiazol-2-yl)-2,5-diphenyltetrazolium bromide, a tetrazole, can pass through cellular membrane to enter into cells. This tetrazole may be reduced to the purple formazan in the mitochondria of living cells, which can diffuse out to form crystals. This crystal can be dissolved in the dimethyl sulfoxide to form a colored solution. The absorbance of this colored solution can be quantified by measuring at certain wavelength (490 nm) using a spectrophotometer. The quantity of the formazan crystal is proportional to the number of living cells.
As used herein, cells were cultured in McCoy's 5A medium supplemented with 10% heat-inactivated Fetal Bovine Serum (FBS) and 5% Penicillin/Streptomycin solution. McCoy's 5A, 1× (Iwakata & Grace modified) medium with L-Glutamine, DPBS, 1× w/o Ca and Mg, Penicillin/Streptomycin solution, Trypsin EDTA, 1× and PBS, 1× w/o Ca and Mg were purchased from Mediatech, Inc. (USA). FBS was purchased from Hyclone (USA).
The cytotoxicity of the compounds was estimated using the MTT assay. A 96-well plate was seeded with 100 μl medium containing HCT116 cells in suspension at a density of 2.5×10^4 cells/ml. After 24 hours of incubation, the cells were treated with the compounds, which were dissolved in DMSO (dimethyl sulfoxide) as stock solutions and diluted to final concentrations of 100 μM, 50 μM, 25 μM, 12.5 μM, 6.25 μM & 1 μM (for compounds tested in the micromolar concentrations) and 10 μM, 1 μM, 500 nM, 250 nM, 125 nM & 62.5 nM (for compounds tested in the nanomolar concentration range) using medium containing 0.1% DMSO. The final concentration of DMSO in the culture medium was maintained at 0.1%-0.001% (v/v). After 48 hrs incubation in the presence of test compounds, the spent medium was removed and the wells were washed twice with 100 μL of PBS solution. 100 μL of fresh medium and 10 μL of MTT (5 mg/ml in PBS) was added to the wells and incubated at 37° C. in dark for 4 hrs. The formazan product was dissolved by adding 100 μL of 100% DMSO after removing the medium from each well and was stabilized by adding 12.5 μL of Sorensen's glycine buffer to each well. […]

[1] = HCT-116, 48 hrs incubation, absorbance 490 nm, primary screening, read-out: IC50

SMILES	melting point [°C]	IC50 (HCT116 cells; [1]) [µM]	IC50 (HCT116 cells; HCT-116, further evaluated after secondary screening (Table VIII), read-out: IC50 value) [µM]
COc1cc(OC)c(C2=CCN(C)CC2)c(O)c1C(=O)/C=C/c1ccc(C#N)cc1 [Compound A15, (E)-3-(4-cyanophenyl)-1-(2-hydroxy-4,6-dimethoxy-3-(1-methyl-1,2,3,6-tetrahydropyridine-4-yl)phenyl)-2-propylene-1-one]	125 to 126	13.3	
COc1ccc(/C=C/C(=O)c2c(OC)cc(OC)c(C3=CCN(C)CC3)c2O)c(OC)c1OC [Compound A16, (E)-1-(2-hydroxy-4,6-dimethoxy-3-(1-methyl-1,2,3,6-tetrahydropyridine-4-yl)phenyl)-3-(2,3-4-trimethoxyphenyl)-2-propylene-1-one]	145 to 147	3.31	
COc1cc(/C=C/C(=O)c2c(OC)cc(OC)c(C3=CCN(C)CC3)c2O)cc(OC)c1OC [Compound A17, (E)-1-(2-hydroxy-4,6-dimethoxy-3-(1-methyl-1,2,3,6-tetrahydropyridine-4-yl)phenyl)-3-(3,4,5-trimethoxyphenyl)-2-propylene-1-one]	156 to 158	18.4	
COc1cc(OC)c(C2=CCNCC2)c(O)c1C(=O)/C=C/c1ccccc1 [Compound B1, 1-(2-hydroxy-4,6-dimethoxy-3-(1,2,3,6-tetrahydropyridine-4-yl)phenyl)-3-phenyl-2-propylene-1-one]	118 to 120	8.41	~0.1
COc1cc(OC)c(C2=CCNCC2)c(O)c1C(=O)/C=C/c1ccccc1[N+](=O)[O-] [Compound B3, (E)-1-(2-hydroxy-4,6-dimethoxy-3-(1,2,3,6-tetrahydropyridine-4-yl)phenyl)-3-(2-nitrophenyl)-2-propylene-1-one]	128 to 130	5.68	
COc1cccc(/C=C/C(=O)c2c(OC)cc(OC)c(C3=CCNCC3)c2O)c1OC [Compound B4, (E)-3-(2,3-dimethoxyphenyl)-1-(2-hydroxy-4,6-dimethoxy-3-(1,2,3,6-tetrahydropyridine-4-yl)phenyl)-2-propylene-1-one]	109 to 110	4.47	
COc1cc(OC)c(C2=CCNCC2)c(O)c1C(=O)/C=C/c1cccc(C)c1 [Compound B5, (E)-1-(2-hydroxy-4,6-dimethoxy-3-(1,2,3,6-tetrahydropyridine-4-yl)phenyl)-3-(3-methylphenyl)-2-propylene-1-one]	95 to 96	6.13	
COc1cccc(/C=C/C(=O)c2c(OC)cc(OC)c(C3=CCNCC3)c2O)c1 [Compound B6, (E)-1-(2-hydroxy-4,6-dimethoxy-3-(1,2,3,6-tetrahydropyridine-4-yl)phenyl)-3-(3-methoxyphenyl)-2-propylene-1-one]	99 to 100	3.08	
COc1cc(OC)c(C2=CCNCC2)c(O)c1C(=O)/C=C/c1cccc(Cl)c1 [Compound B7, (E)-3-(3-chlorophenyl)-1-(2-hydroxy-4,6-dimethoxy-3-(1,2,3,6-tetrahydropyridine-4-yl)phenyl)-2-propylene-1-one]	102 to 103	9.97	
COc1cc(OC)c(C2=CCNCC2)c(O)c1C(=O)/C=C/c1cccc([N+](=O)[O-])c1 [Compound B8, (E)-1-(2-hydroxy-4,6-dimethoxy-3-(1,2,3,6-tetrahydropyridine-4-yl)phenyl)-3-(3-nitrophenyl)-2-propylene-1-one]	199 to 200	4.1	
COc1cc(OC)c(C2=CCNCC2)c(O)c1C(=O)/C=C/c1ccc(C)cc1 [Compound B9, (E)-1-(2-hydroxy-4,6-dimethoxy-3-(1,2,3,6-tetrahydropyridine-4-yl)phenyl)-3-(4-methylphenyl)-2-propylene-1-one]	98 to 100	4.02	
COc1ccc(/C=C/C(=O)c2c(OC)cc(OC)c(C3=CCNCC3)c2O)cc1 [Compound B10, (E)-1-(2-hydroxy-4,6-dimethoxy-3-(1,2,3,6-tetrahydropyridine-4-yl)phenyl)-3-(4-methoxyphenyl)-2-propylene-1-one]	90 to 91	11.4	
COc1cc(OC)c(C2=CCNCC2)c(O)c1C(=O)/C=C/c1ccc(O)cc1 [Compound B11, (E)-1-(2-hydroxy-4,6-dimethoxy-3-(1,2,3,6-tetrahydropyridine-4-yl)phenyl)-3-(4-hydroxyphenyl)-2-propylene-1-one]	109 to 110	4.03	
COc1cc(OC)c(C2=CCNCC2)c(O)c1C(=O)/C=C/c1ccc(Cl)cc1 [Compound B12, (E)-3-(4-chlorophenyl)-1-(2-hydroxy-4,6-dimethoxy-3-(1,2,3,6-tetrahydropyridine-4-yl)phenyl)-2-propylene-1-one]	93 to 94	4.82	
COc1cc(OC)c(C2=CCNCC2)c(O)c1C(=O)/C=C/c1ccc(Br)cc1 [Compound B13, (E)-3-(4-bromophenyl)-1-(2-hydroxy-4,6-dimethoxy-3-(1,2,3,6-tetrahydropyridine-4-yl)phenyl)-2-propylene-1-one]	120 to 121	18.2	
COc1cc(OC)c(C2=CCNCC2)c(O)c1C(=O)/C=C/c1ccc(N(C)C)cc1 [Compound B14, (E)-3-(4-dimethylaminophenyl)-1-(2-hydroxy-4,6-dimethoxy-3-(1,2,3,6-tetrahydropyridine-4-yl)phenyl)-2-propylene-1-one]	127 to 128	32	
COc1cc(OC)c(C2=CCNCC2)c(O)c1C(=O)/C=C/c1ccc(C#N)cc1 [Compound B15, (E)-3-(4-cyanophenyl)-1-(2-hydroxy-4,6-dimethoxy-3-(1,2,3,6-tetrahydropyridine-4-yl)phenyl)-2-propylene-1-one]	135 to 136	7.3	
COc1ccc(/C=C/C(=O)c2c(OC)cc(OC)c(C3=CCNCC3)c2O)c(OC)c1OC [Compound B16, (E)-1-(2-hydroxy-4,6-dimethoxy-3-(1,2,3,6-tetrahydropyridine-4-yl)phenyl)-3-(2,3,4-trimethoxyphenyl)-2-propylene-1-one]	98 to 100	5.54	
COc1cc(/C=C/C(=O)c2c(OC)cc(OC)c(C3=CCNCC3)c2O)cc(OC)c1OC [Compound B17, (E)-1-(2-hydroxy-4,6-dimethoxy-3-(1,2,3,6-tetrahydropyridine-4-yl)phenyl)-3-(3,4,5-trimethoxyphenyl)-2-propylene-1-one]	124 to 125	4.2	
COc1ccc(/C=C/C(=O)c2c(OC)cc(OC)c(CN3CCCCC3)c2O)cc1 [Compound C2, (E)-1-(2-hydroxy-4,6-dimethoxy-3-(piperidin-1-ylmethyl)phenyl)-3-(4-methoxyphenyl)-2-propylene-1-one]	129 to 130	5.46	
COc1cc(OC)c(C(=O)/C=C/c2cccc(Cl)c2)c(O)c1CN1CCCCC1 [Compound C4]	134 to 135	3.87	
COc1cc(OC)c(C(=O)/C=C/c2ccc(C)cc2)c(O)c1CN1CCOCC1 [Compound D1, (E)-1-(2-hydroxy-4,6-dimethoxy-3-(morpholin-4-ylmethyl)phenyl)-3-(4-methylphenyl)-2-propylene-1-one]	126 to 127	14.8	
